Laboratory results from PubChem BioAssay (NCI).
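Step 1: Grow cells in 96-well plates. Step 2: Expose to compound for 48 hours at 5 concentrations. Step 3: Interpolate endpoints linearly; if unreached, use highest concentration. GI50 marks 50% less growth. TGI: total growth inhibition.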

Assays:
Experiment in all cases: NCI tumour cell line growth inhibition, 48 h
[1] = system: 786-0 renal
[2] = system: SNB-75 CNS
[3] = system: SF-295 CNS
[4] = system: MALME-3M melanoma
[5] = system: HOP-62 NSCLC
[6] = system: SK-OV-3 ovarian
[7] = system: HCC-2998 colon
[8] = system: HT29 colon
[9] = system: COLO 205 colon
[10] = system: ACHN renal

SMILES: COc1ccc(-c2cc(-c3cccc(NS(C)(=O)=O)c3)nc(N)c2C#N)cc1
- GI50 [1]: 0.283 µM
- TGI [1]: 13.7 µM
- GI50 [2]: 0.0316 µM
- TGI [2]: 0.769 µM
- GI50 [3]: 0.0497 µM
- TGI [3]: 2.87 µM
- GI50 [4]: 0.0417 µM
- TGI [4]: 21.8 µM
- GI50 [5]: 0.0689 µM
- TGI [5]: 34.6 µM
- GI50 [6]: 0.0879 µM
- TGI [6]: 1.57 µM
- GI50 [7]: 0.185 µM
- TGI [7]: 2.44 µM
- GI50 [8]: 0.0382 µM
- TGI [8]: 0.731 µM
- GI50 [9]: 0.0747 µM
- TGI [9]: 0.607 µM
- GI50 [10]: 0.0789 µM
- TGI [10]: 43.9 µM

SMILES: Clc1ccc(CNc2nccc(-c3cnn4ncccc34)n2)cc1
- GI50 [1]: 9.19 µM
- TGI [1]: 24.4 µM
- GI50 [2]: 6.28 µM
- TGI [2]: 12.8 µM
- GI50 [3]: 5.36 µM
- TGI [3]: > 18.2 µM
- GI50 [4]: 8.94 µM
- TGI [4]: 23.3 µM
- GI50 [5]: 7.59 µM
- TGI [5]: > 25 µM
- GI50 [6]: 11.8 µM
- TGI [6]: > 25 µM
- GI50 [7]: 6.67 µM
- TGI [7]: 18.4 µM
- GI50 [8]: 6.46 µM
- TGI [8]: 21.1 µM
- GI50 [9]: 4.86 µM
- TGI [9]: 9.76 µM
- GI50 [10]: 5.95 µM
- TGI [10]: > 25 µM

SMILES: N#C/C(=C\c1c(-c2ccccc2)[nH]c2ccccc12)C(=O)c1ccccc1
- GI50 [1]: 16.5 µM
- TGI [1]: > 100 µM
- GI50 [2]: 3.2 µM
- TGI [2]: 34 µM
- GI50 [3]: 3 µM
- TGI [3]: > 100 µM
- GI50 [4]: 12.3 µM
- TGI [4]: > 100 µM
- GI50 [5]: 16.3 µM
- TGI [5]: > 100 µM
- GI50 [6]: 15.2 µM
- TGI [6]: > 100 µM
- GI50 [7]: 14.5 µM
- TGI [7]: > 100 µM
- GI50 [8]: 3.41 µM
- TGI [8]: > 100 µM
- GI50 [9]: 5.02 µM
- TGI [9]: > 100 µM
- GI50 [10]: 7.16 µM
- TGI [10]: > 100 µM

SMILES: C=C1C(=O)OC2/C=C(\CO)CC/C=C(\CO)CC(OC(=O)C(C)C)C12 (stereo not given)
- TGI [1]: 20.2 µM
- TGI [2]: 32.2 µM
- TGI [3]: 45.5 µM
- TGI [4]: 4.45 µM
- TGI [5]: 36.3 µM
- TGI [6]: > 55.9 µM
- TGI [7]: 37.2 µM
- TGI [8]: 30 µM
- TGI [9]: 4.18 µM
- TGI [10]: 3.54 µM

SMILES: CC1(C)CC([P+](c2ccccc2)(c2ccccc2)c2ccccc2)=NN1
- GI50 [1]: 26.6 µM
- TGI [1]: > 100 µM
- GI50 [2]: 5.3 µM
- TGI [2]: > 100 µM
- GI50 [3]: 8.68 µM
- TGI [3]: 43.9 µM
- GI50 [4]: 3.43 µM
- TGI [4]: > 100 µM
- GI50 [5]: 7.4 µM
- TGI [5]: > 100 µM
- GI50 [6]: 11.7 µM
- TGI [6]: 68.7 µM
- GI50 [7]: 2.79 µM
- TGI [7]: > 100 µM
- GI50 [8]: 3.29 µM
- TGI [8]: > 100 µM
- GI50 [9]: 1.44 µM
- TGI [9]: 3.36 µM
- GI50 [10]: 60.2 µM
- TGI [10]: > 100 µM

SMILES: Cc1ncc(C(=O)Nc2ccc(CN3CCN(C)CC3)c(C(F)(F)F)c2)cc1C#Cc1c(N)ncc2ccccc12
- GI50 [1]: 0.568 µM
- TGI [1]: 1.05 µM
- GI50 [2]: 0.458 µM
- TGI [2]: 0.975 µM
- GI50 [3]: 0.568 µM
- TGI [3]: 1.14 µM
- GI50 [4]: 0.102 µM
- TGI [4]: 0.475 µM
- GI50 [5]: 0.524 µM
- TGI [5]: 1.4 µM
- GI50 [6]: 1.61 µM
- TGI [6]: 5.06 µM
- GI50 [7]: 0.446 µM
- TGI [7]: 0.899 µM
- GI50 [8]: 0.0978 µM
- TGI [8]: 0.585 µM
- GI50 [9]: 0.131 µM
- TGI [9]: 0.619 µM
- GI50 [10]: 0.336 µM
- TGI [10]: 0.732 µM

SMILES: CCOc1nccc2c1nc(-c1nonc1N)n2CC
- GI50 [1]: > 25 µM
- TGI [1]: > 25 µM
- GI50 [2]: 16.2 µM
- TGI [2]: > 25 µM
- GI50 [3]: > 25 µM
- TGI [3]: > 25 µM
- GI50 [4]: > 25 µM
- TGI [4]: > 25 µM
- GI50 [5]: > 25 µM
- TGI [5]: > 25 µM
- GI50 [6]: > 25 µM
- TGI [6]: > 25 µM
- GI50 [7]: > 25 µM
- TGI [7]: > 25 µM
- GI50 [8]: > 25 µM
- TGI [8]: > 25 µM
- GI50 [9]: > 25 µM
- TGI [9]: > 25 µM
- GI50 [10]: > 25 µM
- TGI [10]: > 25 µM

SMILES: Cc1ccccc1C(=O)Oc1ccc(OCc2ccccc2)cc1
- TGI [1]: > 100 µM
- TGI [2]: > 100 µM
- TGI [3]: > 100 µM
- TGI [4]: > 100 µM
- TGI [5]: > 100 µM
- TGI [6]: > 100 µM
- TGI [7]: > 100 µM
- TGI [8]: > 100 µM
- TGI [9]: > 100 µM
- TGI [10]: > 100 µM

SMILES: COc1ccc(-c2ccc(-c3ccc(C(=N)N)cn3)o2)cc1Cl
- GI50 [1]: 1.86 µM
- TGI [1]: 3.4 µM
- GI50 [2]: 1.66 µM
- TGI [2]: 3.51 µM
- GI50 [3]: 1.65 µM
- TGI [3]: 3.27 µM
- GI50 [4]: 1.81 µM
- TGI [4]: 3.48 µM
- GI50 [5]: 3.68 µM
- TGI [5]: 14.4 µM
- GI50 [6]: 10.6 µM
- TGI [6]: 22.8 µM
- GI50 [7]: 1.88 µM
- TGI [7]: 3.38 µM
- GI50 [8]: 1.87 µM
- TGI [8]: 3.78 µM
- GI50 [9]: 1.66 µM
- TGI [9]: 3.18 µM
- GI50 [10]: 1.69 µM
- TGI [10]: 3.1 µM

SMILES: O=C1C(=O)N(c2nccs2)C(=O)C(=O)C1c1nc2ccccc2s1
- TGI [1]: > 100 µM
- TGI [2]: > 100 µM
- TGI [3]: > 100 µM
- TGI [4]: > 100 µM
- TGI [5]: > 100 µM
- TGI [6]: > 100 µM
- TGI [7]: > 100 µM
- TGI [8]: > 100 µM
- TGI [9]: > 100 µM
- TGI [10]: > 100 µM

SMILES: CCN(CC)CCn1c2ccc(OC)cc2c2sc3cc(OC)ccc3c(=O)c21
- GI50 [1]: 1.59 µM
- TGI [1]: 3.23 µM
- GI50 [2]: 1.11 µM
- TGI [2]: 6.48 µM
- GI50 [3]: 1.82 µM
- TGI [3]: 3.45 µM
- GI50 [4]: 1.59 µM
- TGI [4]: 3.18 µM
- GI50 [5]: 2.32 µM
- TGI [5]: 8.62 µM
- GI50 [6]: 3.07 µM
- TGI [6]: 10.3 µM
- GI50 [7]: 1.48 µM
- TGI [7]: 3.14 µM
- GI50 [8]: 1.51 µM
- TGI [8]: 9.12 µM
- GI50 [9]: 1.39 µM
- TGI [9]: 3.32 µM
- GI50 [10]: 1 µM
- TGI [10]: 2.77 µM

SMILES: COc1cc(F)c(/C=C/c2cc(/C=C/c3cc(OC)c(OC)cc3F)n(-c3cc(F)cc(F)c3)n2)cc1OC
- GI50 [1]: 1.63 µM
- TGI [1]: 3.22 µM
- GI50 [2]: 2.42 µM
- TGI [2]: 14.4 µM
- GI50 [3]: 2.97 µM
- TGI [3]: 11.4 µM
- GI50 [4]: 1.78 µM
- TGI [4]: 4.06 µM
- GI50 [5]: 4.01 µM
- TGI [5]: 17.1 µM
- GI50 [6]: 19.6 µM
- TGI [6]: 41.9 µM
- GI50 [7]: 6.18 µM
- TGI [7]: 47.9 µM
- GI50 [8]: 2.27 µM
- TGI [8]: 6.81 µM
- GI50 [9]: 3.95 µM
- TGI [9]: 26.8 µM
- GI50 [10]: 18.1 µM
- TGI [10]: 46.2 µM

SMILES: Nc1cc(S(N)(=O)=O)ccc1SSc1ccc(S(N)(=O)=O)cc1N
- TGI [1]: > 100 µM
- TGI [2]: > 100 µM
- TGI [3]: > 100 µM
- TGI [4]: > 100 µM
- TGI [5]: > 100 µM
- TGI [6]: > 100 µM
- TGI [7]: > 100 µM
- TGI [8]: > 100 µM
- TGI [9]: > 100 µM
- TGI [10]: > 100 µM

SMILES: CC(C)C[C@H](NC(=O)CCn1ccc2ncccc2c1=O)B(O)O
- GI50 [1]: 14 µM
- TGI [1]: > 100 µM
- GI50 [2]: 14.5 µM
- TGI [2]: 47.5 µM
- GI50 [3]: 11.5 µM
- TGI [3]: 43.9 µM
- GI50 [4]: 5.2 µM
- TGI [4]: 48.9 µM
- GI50 [5]: 21.7 µM
- TGI [5]: > 79 µM
- GI50 [6]: > 66 µM
- TGI [6]: > 100 µM
- GI50 [7]: 12.9 µM
- TGI [7]: 30.2 µM
- GI50 [8]: 6.28 µM
- TGI [8]: > 100 µM
- GI50 [9]: 10.3 µM
- TGI [9]: > 100 µM
- GI50 [10]: 9.45 µM
- TGI [10]: > 100 µM
